Measured values from BindingDB's records for PubMed 3033464 (Burroughs Wellcome, 1987).
Values joined by “and” are separate entries in the source; they are usually repeats but may differ in a detail not shown here. Equal entries are not always repeated. Where a SMILES comes first, the peptide text is derived from it.

Biological target: Mu-type opioid receptor (Rattus norvegicus, UniProt P33535)
Sequence (P33535 whole entry): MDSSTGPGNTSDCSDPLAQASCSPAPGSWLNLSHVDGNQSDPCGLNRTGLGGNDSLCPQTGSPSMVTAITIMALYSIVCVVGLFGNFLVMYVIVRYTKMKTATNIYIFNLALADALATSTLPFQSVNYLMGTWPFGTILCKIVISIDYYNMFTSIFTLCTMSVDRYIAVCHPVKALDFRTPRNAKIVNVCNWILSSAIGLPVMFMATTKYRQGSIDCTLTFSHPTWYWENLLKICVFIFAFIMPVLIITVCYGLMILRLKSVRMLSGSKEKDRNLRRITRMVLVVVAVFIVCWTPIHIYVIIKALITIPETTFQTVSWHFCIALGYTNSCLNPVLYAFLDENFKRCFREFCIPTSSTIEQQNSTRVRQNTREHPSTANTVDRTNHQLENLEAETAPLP

Row | SMILES | Ki
1 | CC(C)[C@H](NC(=O)[C@H](Cc1ccccc1)NC(=O)[C@@H]1CCCN1C(=O)[C@@H](N)Cc1ccc(O)cc1)C(N)=O (H-YPFV-NH2) | 37 nM and 16.1 nM
2 | NC(=O)[C@@H]1CCCN1C(=O)[C@H](Cc1ccccc1)NC(=O)[C@@H]1CCCN1C(=O)[C@@H](N)Cc1ccc(O)cc1 [CAS_79805-24-6] (H-YPFP-NH2) | 1160 nM
3 | NC(=O)[C@@H]1CCCN1C(=O)[C@@H](Cc1ccccc1)NC(=O)[C@@H]1CCCN1C(=O)[C@@H](N)Cc1ccc(O)cc1 [Morphiceptin] (HELM PEPTIDE1{Y.P.[dF].P.[am]}$$$$V2.0) | 63 nM and 34.9 nM
